Assay results reported in US11207301B2, “Sphingosine 1 phosphate receptor agonists for neuroprotection” (RECEPTOS LLC, priority 2017, dated 2021).

Tests used:
Assay type in all cases: cell-based
[1] = tested on: AKT phosphorylation in primary rat astrocytes; assay: AKT phosphorylation in primary rat astrocytes (MSD pAKT assay); conditions: Astrocyte, 10 min, 10-minute exposure, mean of n=4
Description: For the experiments using rat primary astrocytes, eight-point concentration-response curves were generated for AKT and ERK phosphorylation in primary rat astrocytes cultures in response to a 10-minute treatment with ozanimod (100 nM-46 pM), Compound 3 (10 nM-5 pM), Compound 1 (10 nM-5 pM), or FTY720-P (10 nM-5 pM). Phosphorylation of AKT and ERK was quantified using Meso Scale Discovery assay kits (MSD Mutli-Spot Phopho-AKT (Ser473) Assay Kit and MSD Multi-Spot MAP Kinase Phosphoprotein Assay Whole Cell Lysate Kit) and imaging platform. AKT and ERK phosphorylation within treated astrocytes were assessed as the mean change in signal intensity compared to DMSO vehicle and the half maximal effective concentration (EC50) was determined using non-linear regression.
Embryonic day18 (E18) rat cortices were purchased from BrainBits LLC. (Springfield, Ill.) and were cultured according to the supplier's protocol. Briefly, cortices were incubated at 37° C. for 10 minutes in activated papain solution before trituration in hibernation medium containing B27 supplement using a modified siliconized glass Pasteur pipette. The cell suspension was centrifuged at 1100×g for 1 minute at room temperature (RT). The cell pellet was then resuspended in NbAstro medium (BrainBits LLC.) and the live cell density was assessed using a cell counter. Primary cells were plated at a density of 7500 cells/cm2 in T75 tissue culture flasks coated with poly-D-lysine (PDL) in a total volume of 12 mL of NbAstro media, and incubated for 10-14 days at 37° C. 5% CO2. After 10-14 days, primary astrocytes in passage 0 (P0) that had reached confluency in the T75 flasks were detached using TrypLE detachment reagent, pelleted at 300×g, and plated into poly-d-lysine coated T225 flasks in 20 mL of NbAstro media, and incubated for another 7 days at 37° C. 5% CO2. After 7 days, primary P1 astrocytes in confluent T225 flasks were detached using TrypLE detachment reagent, pelleted at 300×g, and plated intopoly-d-lysine coated 96-well plates at 10,000 cells per well in 200 μL of NbAstro media, and incubated for 7 days at 37° C. 5% CO2. After 7 days, P2 primary astrocytes were utilized for pAKT and pERK assays.
The pAKT (phosphorylated AKT) assay was performed according to the manufacturer's protocol. Briefly, MSD pAKT plates were blocked for 1-2 hours by adding 150 μL of blocker A prepared in 1× Tris wash buffer. […] Following antibody incubation, plates were washed three times with 150 μL of 1× Tris wash buffer and 1× read buffer (150 μL/well) was added. Finally, plates were read in the MSD imager platform to assess pAKT levels.
AKT and ERK phosphorylation data were analyzed by non-linear regression (GraphPad Prism, version 6) to determine the EC50 values.

[2] = tested on: AKT phosphorylation in primary mouse astrocytes; assay: AKT phosphorylation in primary mouse cortical astrocytes (AlphaLISA SureFire Ultra); conditions: Astrocyte, 10 min, 10-minute exposure, mean of n=3
Description: (§1) For the experiments using mouse and human primary astrocytes, ten-point concentration-response curves (90 nM-4.57 pM or 30 nM-1.52 pM) were generated for AKT and/or ERK phosphorylation in primary human and mouse cortical astrocytic cultures in response to a 10-minute treatment with ozanimod, Compound 3, Compound 1, or FTY720-P. AKT and ERK phosphorylation were quantified using AlphaLISA SureFire Ultra Assay kits and the EnVision Plate Reader. AKT and ERK phosphorylation within treated astrocytes were expressed as the mean change in signal intensity compared to the dimethyl sulfoxide (DMSO) vehicle and the half maximal effective concentration (EC50) was determined using non-linear regression.
(§2) Timed pregnant (E16) C57BL/6J female mice arrive to the test facility on a weekly basis and were housed and cared for according to appropriate protocols for this model. Primary mouse cortical astrocytes are harvested from P0-P2 pups. The newly born animals were deeply anesthetized on ice, decapitated, and the brains were rapidly removed and stored in ice-cold NbAstro media (BrainBits, LLC). Cells were dissociated from freshly dissected cortices by mechanical disruption in the presence of trypsin and DNase. Cells were put into a PDL coated T75 tissue culture flask containing 16 mL NbAstro Media and incubated at 37° C. 5% CO2. Once the mouse astrocytes had reached confluency in the T75 flask, they were detached using TripLE detachment reagent, pelleted at 300×g, expanded into two T225 PDL coated tissue culture flasks containing 40 mL of NbAstro and incubated at 37° C. 5% CO2. Once the astrocytes reached confluency in the T225 flasks they were detached using TrypLE detachment reagent, pelleted at 300×g, plated into PDL coated 96-well plates at a density of 10,000 cells per well in 200 μL NbAstro and incubated at 37° C. 5% CO2. Half of the media was replenished every 3-4 days. After 5-7 days of incubation, the P2 mouse astrocyte plates were utilized for the pERK and pAKT assays.
Cell lysis and detection of pAKT were performed according to the PerkinElmer AlphaLISA SureFire Ultra pAKT1/2/3 ([…]) assay protocol. Astrocytes were lysed in the 96-well plate following a 10 minute incubation with compounds with shaking at room temperature (RT). The astrocytic lysates (10 μL/well) were transferred into a 384-well OptiPlate. As specified by the assay protocol, an acceptor bead mix and a donor bead mix (5 μL/well for each) were added to the plate under subdued light. […] The plates were read on the EnVision Plate Reader to assess the pAKT levels.
(§3) The AKT and ERK phosphorylation data, collected by a Perkin Elmer EnVision Microplate Reader, was analyzed by non-linear regression (GraphPad Prism, version 7.03) to determine the EC50 values.

[3] = tested on: ERK phosphorylation in primary mouse astrocytes; assay: ERK phosphorylation in primary mouse cortical astrocytes (AlphaLISA SureFire Ultra); conditions: Astrocyte, 10 min, 10-minute exposure
Description: as §1
as §2, with “Once the astrocytes reached confluency in the T225 flasks they were detached using TrypLE detachment reagent, pelleted at 300×g, plated into PDL coated 96-well plates at a density of 10,000 cells per well in 200 μL NbAstro and incubated at 37° C. 5% CO2. Half of the media was replenished every 3-4 days. After 5-7 days of incubation, the P2 mouse astrocyte plates were utilized for the pERK and pAKT assays.” left out
Cell lysis and detection of pERK were performed according to the PerkinElmer AlphaLISA SureFire Ultra p-ERK1/2 (Thr202/TYR 204) assay protocol. […] The plates were read on the EnVision Plate Reader to assess the pERK levels.
as §3

| EC50 [1] | EC50 [2] | EC50 [3] | SMILES |
| --- | --- | --- | --- |
| 0.66 nM | 0.49 nM | 0.87 nM | CC(C)Oc1ccc(-c2nc(-c3cccc4c3CCC4=O)no2)cc1C#N [Compound 1, 2-isopropoxy-5-(3-(1-oxo-2,3-dihydro-1H-inden-4-yl)-1,2,4-oxadiazol-5-yl)benzonitrile] |
| 2.03 nM | 0.9 nM | 2.42 nM | CC(C)Oc1ccc(-c2nc(-c3cccc4c3CC[C@@H]4NCCO)no2)cc1C#N [Ozanimod] |
